Test results as given in patent US10954252B1, “Inhibitors of human immunodeficiency virus replication” (ViiV HEALTHCARE UK (NO.5) LIMITED, priority 2017, dated 2021).

What was measured:
[1] = system: recombinant NL4-3 virus (nef section replaced with Renilla luciferase gene) in MT-2 cells; assay: HIV cell culture assay (antiviral activity, luciferase readout); assay type: cell-based; details: MT-2 cells infected for 4-5 days with recombinant NL4-3 luciferase virus
Method in brief: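 NL4-3 reporter virus carrying Renilla luciferase in place of part of nef, produced in 293T cells, was used to infect MT-2 cells for 4-5 days with serial compound dilutions. Luciferase activity was read with a live-cell substrate; EC50 derived from the median effect equation.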

[2] = Compound cytotoxicity, XTT-based colorimetric assay; assay type: cell-based; details: human, uninfected MT2 cells
Method in brief: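 CC50 from uninfected MT2 cells run under the antiviral-assay protocol without virus. Viability read on day 4 by XTT colorimetric assay.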

SMILES	EC50 ([1]; Table 1a)	CC50 at 4 days ([2]; Table 1a, day 4, XTT)	EC50 ([1]; Renilla, NL43, Table 1)	CC50 at 4 days ([2]; Table 1, day 4, XTT)	EC50 ([1]; Renilla, NL43, Table 1a)
Cn1nc(NS(C)(=O)=O)c2c(Cl)ccc(-n3c([C@H](Cc4cc(F)cc(F)c4)NC(=O)Cn4nc(C(F)F)c5c4C(F)(F)[C@@H]4C[C@H]54)nc4cc(CS(C)(=O)=O)ccc4c3=O)c21 (mixture of isomers) [Example 201, N—((S)-1-(3-(4-chloro-1-methyl-3-(methylsulfonamido)-1H-indazol-7-yl)-7-((methylsulfonyl)methyl)-4-oxo-3,4-dihydroquinazolin-2-yl)-2-(3,5-difluorophenyl)ethyl)-2-((3bS,4aR)-3-(difluoromethyl)-5,5-difluoro-3b,4,4a,5-tetrahydro-1H-cyclopropa[3,4]cyclopenta[1,2-c]pyrazol-1-yl)acetamide]	71.8 nM	> 1000 nM	–	–	–
COc1c(F)ccc2c(=O)n(-c3ccc(Cl)c4c(NS(C)(=O)=O)nn(C)c34)c([C@H](Cc3cc(F)cc(F)c3)NC(=O)Cn3nc(C(F)F)c4c3C(F)(F)[C@@H]3C[C@H]43)nc12 (single isomer, unassigned) [Example 109]	118 nM	> 1000 nM	–	–	–
Cn1nc(NS(C)(=O)=O)c2c(Cl)ccc(-n3c([C@H](Cc4cc(F)cc(F)c4)NC(=O)Cn4nc(C(F)F)c5c4C(F)(F)[C@@H]4C[C@H]54)nc4cc(Cl)ccc4c3=O)c21 (mixture of isomers) [Example 167, N—((S)-1-(7-chloro-3-(4-chloro-1-methyl-3-(methylsulfonamido)-1H-indazol-7-yl)-4-oxo-3,4-dihydroquinazolin-2-yl)-2-(3,5-difluorophenyl)ethyl)-2-((3bS,4aR)-3-(difluoromethyl)-5,5-difluoro-3b,4,4a,5-tetrahydro-1H-cyclopropa[3,4]cyclopenta[1,2-c]pyrazol-1-yl)acetamide]	80.5 nM	> 1000 nM	–	–	–
O=C(Cn1nc(C(F)F)c2c1C(F)(F)[C@@H]1C[C@H]21)N[C@@H](Cc1cc(F)cc(F)c1)c1nc2cn[nH]c2cc1-c1ccc(Cl)c(C(=O)O)c1 [Example 10.11, 2-Chloro-5-(5-((S)-1-(2-((3bS,4aR)-3-(difluoromethyl)-5,5-difluoro-3b,4,4a,5-tetrahydro-1H-cyclopropa[3,4]cyclopenta[1,2-c]pyrazol-1-yl)acetamido)-2-(3,5-difluorophenyl)ethyl)-1H-pyrazolo[4,3-b]pyridin-6-yl)benzoic acid]	–	–	810 nM	> 10000 nM	–
Cc1ccn(CC(=O)N[C@@H](Cc2cc(F)cc(F)c2)c2nc3ncccc3c(=O)n2-c2ccc(Cl)c3c(NS(C)(=O)=O)nn(C)c23)n1 (single isomer, unassigned) [Example 47.1]	227 nM	> 1000 nM	–	–	–
Cn1nc(NS(C)(=O)=O)c2c(Cl)ccc(-n3c([C@H](Cc4cc(F)cc(F)c4)NC(=O)Cn4nc(C(F)(F)F)c5c4CCC5)nc4ncccc4c3=O)c21 [Example 52, N-[(1S)-1-[3-(4-chloro-3-methanesulfonamido-1-methyl-1H-indazol-7-yl)-4-oxo-3H,4H-pyrido[2,3-d]pyrimidin-2-yl]-2-(3,5-difluorophenyl)ethyl]-2-[3-(trifluoromethyl)-1H,4H,5H,6H-cyclopenta[c]pyrazol-1-yl]acetamide]	–	> 1000 nM	–	–	0.039 nM
Cn1nc(NS(C)(=O)=O)c2c(Cl)ccc(-c3cc4[nH]ncc4nc3[C@H](Cc3cc(F)cc(F)c3)NC(=O)Cc3c[nH]c4ccc(O)cc34)c21 [Example 10.22]	–	–	22 nM	> 10000 nM	–
COc1ccc2c(=O)n(-c3ccc(Cl)c4c(NS(C)(=O)=O)nn(C)c34)c([C@H](Cc3cc(F)cc(F)c3)NC(=O)Cn3nc(C(F)F)c4c3C(F)(F)[C@@H]3C[C@H]43)nc2c1F (single isomer, unassigned) [Example 76]	–	> 1000 nM	–	–	0.118 nM
NC(=O)c1cc(-c2cc3[nH]ncc3nc2[C@H](Cc2cc(F)cc(F)c2)NC(=O)Cn2nc(C(F)F)c3c2C(F)(F)[C@@H]2C[C@H]32)ccc1Cl [Example 10.3, 2-Chloro-5-(5-((S)-1-(2-((3bS,4aR)-3-(difluoromethyl)-5,5-difluoro-3b,4,4a,5-tetrahydro-1H-cyclopropa[3,4]cyclopenta[1,2-c]pyrazol-1-yl)acetamido)-2-(3,5-difluorophenyl)ethyl)-1H-pyrazolo[4,3-b]pyridin-6-yl)benzamide]	–	–	84 nM	> 10000 nM	–
Cn1nc(NS(C)(=O)=O)c2c(Cl)ccc(-n3c(C(Cc4cc(F)cc(F)c4)NC(=O)Cn4nc(C(F)F)c5c4C(F)(F)[C@@H]4C[C@H]54)nc4c(F)cc(F)cc4c3=O)c21 (stereo partly drawn) [Example 73]	–	> 1000 nM	–	–	1.53 nM
Cn1nc(NS(C)(=O)=O)c2c(Cl)ccc(-n3c([C@H](Cc4cc(F)cc(F)c4)NC(=O)Cn4ccc(C5CC5)n4)nc4ccc(OC(F)(F)F)cc4c3=O)c21 (single isomer, unassigned) [Example 152]	173 nM	> 1000 nM	–	–	–
O=C(Cc1c[nH]c2ccc(O)cc12)N[C@@H](Cc1cc(F)cc(F)c1)c1nc2ccccc2c(=O)n1-c1ccc(S(=O)(=O)N2CCOCC2)cc1 [Example 164, (S)—N-(2-(3,5-difluorophenyl)-1-(3-(4-(morpholinosulfonyl)phenyl)-4-oxo-3,4-dihydroquinazolin-2-yl)ethyl)-2-(5-hydroxy-1H-indol-3-yl)acetamideacetamide]	–	> 10000 nM	–	–	1.17 nM
O=C(Cn1nc(C(F)F)c2c1C(F)(F)[C@@H]1C[C@H]21)N[C@@H](Cc1cc(F)cc(F)c1)c1nc2cn[nH]c2cc1-c1cccc(C(=O)O)c1 [Example 10.10, 3-(5-((S)-1-(2-((3bS,4aR)-3-(difluoromethyl)-5,5-difluoro-3b,4,4a,5-tetrahydro-1H-cyclopropa[3,4]cyclopenta[1,2-c]pyrazol-1-yl)acetamido)-2-(3,5-difluorophenyl)ethyl)-1H-pyrazolo[4,3-b]pyridin-6-yl)benzoic acid]	–	–	140 nM	> 10000 nM	–
CC(C)S(=O)(=O)NC(=O)c1cc(-c2cc3[nH]ncc3nc2[C@H](Cc2cc(F)cc(F)c2)NC(=O)Cn2nc(C(F)F)c3c2C(F)(F)[C@@H]2C[C@H]32)ccc1Cl [Example 10.19, 2-chloro-5-(5-((S)-1-(2-((3bS,4aR)-3-(difluoromethyl)-5,5-difluoro-3b,4,4a,5-tetrahydro-1H-cyclopropa[3,4]cyclopenta[1,2-c]pyrazol-1-yl)acetamido)-2-(3,5-difluorophenyl)ethyl)-1H-pyrazolo[4,3-b]pyridin-6-yl)-N-(isopropylsulfonyl)benzamide]	–	–	220 nM	> 10000 nM	–
Cn1nc(NS(C)(=O)=O)c2c(Cl)ccc(-n3c([C@H](Cc4cc(F)cc(F)c4)NC(=O)Cn4nc(C(F)F)c5c4C(F)(F)[C@@H]4C[C@H]54)nc4c(F)cccc4c3=O)c21 (single isomer, unassigned) [Example 71]	–	> 1000 nM	–	–	9.58 nM
COc1c(F)cc2c(=O)n(-c3ccc(Cl)c4c(NS(C)(=O)=O)nn(C)c34)c([C@H](Cc3cc(F)cc(F)c3)NC(=O)Cn3ccc(C4CC4)n3)nc2c1F (single isomer, unassigned) [Example 115]	68.4 nM	> 1000 nM	–	–	–
Cn1nc(NS(C)(=O)=O)c2c(Cl)ccc(-n3c([C@H](Cc4cc(F)cc(F)c4)NC(=O)Cn4nc5c(c4C(F)F)CCC5)nc4ncccc4c3=O)c21 (single isomer, unassigned) [Example 48.2]	–	> 1000 nM	–	–	0.16 nM
N#Cc1ccc(-c2cc3[nH]ncc3nc2[C@H](Cc2cc(F)cc(F)c2)NC(=O)Cn2nc(C(F)F)c3c2C(F)(F)[C@@H]2C[C@H]32)cc1F [Example 10.4, N—((S)-1-(6-(4-cyano-3-fluorophenyl)-1H-pyrazolo[4,3-b]pyridin-5-yl)-2-(3,5-difluorophenyl)ethyl)-2-((3bS,4aR)-3-(difluoromethyl)-5,5-difluoro-3b,4,4a,5-tetrahydro-1H-cyclopropa[3,4]cyclopenta[1,2-c]pyrazol-1-yl)acetamide]	–	–	1150 nM	8240 nM	–
CN(C)S(=O)(=O)c1ccc(-c2cc3[nH]ncc3nc2[C@H](Cc2cc(F)cc(F)c2)NC(=O)Cn2nc(C(F)F)c3c2C(F)(F)[C@@H]2C[C@H]32)cc1 [Example 26, 2-((3bS,4aR)-3-(difluoromethyl)-5,5-difluoro-3b,4,4a,5-tetrahydro-1H-cyclopropa[3,4]cyclopenta[1,2-c]pyrazol-1-yl)-N—((S)-2-(3,5-difluorophenyl)-1-(6-(4-(N,N-dimethylsulfamoyl)phenyl)-1H-pyrazolo[4,3-b]pyridin-5-yl)ethyl)acetamide]	–	5010 nM	–	–	18.7 nM
Cn1nc(NS(C)(=O)=O)c2c(Cl)ccc(-c3cc4sc(N)nc4nc3C(Cc3cc(F)cc(F)c3)NC(=O)Cn3nc(C(F)F)c4c3C(F)(F)[C@@H]3C[C@H]43)c21 (mixture of isomers) [Example 194, N-(1-(2-amino-6-(4-chloro-1-methyl-3-(methylsulfonamido)-1H-indazol-7-yl)thiazolo[4,5-b]pyridin-5-yl)-2-(3,5-difluorophenyl)ethyl)-2-((3bS,4aR)-3-(difluoromethyl)-5,5-difluoro-3b,4,4a,5-tetrahydro-1H-cyclopropa[3,4]cyclopenta[1,2-c]pyrazol-1-yl)acetamide]	–	> 10000 nM	–	–	1.9 nM
Cc1ccc2c(=O)n(-c3ccc(Cl)c4c(NS(C)(=O)=O)nn(C)c34)c([C@H](Cc3cc(F)cc(F)c3)NC(=O)Cn3nc(C(F)F)c4c3C(F)(F)[C@@H]3C[C@H]43)nc2n1 (mixture of isomers) [Example 41.2, N-[(1S)-1-[3-(4-chloro-3-methanesulfonamido-1-methyl-1H-indazol-7-yl)-7-methyl-4-oxo-3H,4H-pyrido[2,3-d]pyrimidin-2-yl]-2-(3,5-difluorophenyl)ethyl]-2-[(2S,4R)-9-(difluoromethyl)-5,5-difluoro-7,8-diazatricyclo[4.3.0.0^2,4]nona-1(6),8-dien-7-yl]acetamide]	–	> 10000 nM	–	–	0.022 nM
